The target in test [1] is T1, human recombinant wild-type ALK kinase domain (amino acids 1093-1411) (Homo sapiens, UniProt Q9UM73).
T1 construct: ALK kinase domain (amino acids 1093-1411); made in house
Kind of test: Wild-type ALK enzyme assay (microfluidic mobility shift). Format: biochemical. The following applies: ATP 60 μM, competitive inhibition fit, read-out: WT ALK enzyme assay (Ki).
Description: The reactions were incubated for 1 h at room temperature, stopped by the addition of 0.1 M EDTA, pH 8, and the extent of reactions (˜15-20% conversion with no inhibitor) was determined after electrophoretic separation of the fluorescently labeled peptide substrate and phosphorylated product on an LabChip EZ Reader II (Caliper Life Sciences, Hopkinton, Mass.).

Test [2] deals with T2, human recombinant L1196M ALK kinase domain (amino acids 1093-1411) (Homo sapiens, UniProt Q9UM73, L1196M).
T2 construct: ALK kinase domain (amino acids 1093-1411); made in house
Kind of test: L1196M mutant ALK enzyme assay (microfluidic mobility shift). The test is classed as biochemical. Conditions: ATP 60 μM, 0.5 nM enzyme, competitive inhibition fit; read-out: L1196M ALK enzyme assay (Ki).

The target of test [3] is T3, WT EML4-ALK (NIH-3T3 EML4-ALK wt v1 cells) (Homo sapiens, UniProt Q9UM73).
T3 construct: expressed in transfected cells; the other entry of the earlier key: EML4 (Q9HC35, Echinoderm microtubule-associated protein-like 4)
Nature of the test: Cellular phospho-ALK (Tyr1604) ELISA assay for WT EML4-ALK. Format: cell-based. The following applies: 1 hour, read-out: ELISA assay for WT EML4-ALK (IC50). (ELISA stands for enzyme-linked immunosorbent assay.)
Description: Cellular Phospho-ALK (Tyr1604) ELISA Assay for EML4-ALK:
The cells were maintained at 37° C. in a 5% CO2 incubator in DMEM (Invitrogen, Carlsbad, Calif.) medium supplemented with 1% L-glutamine, 1% penicillin and streptomycin, 1 ug/ml puromycin and 10% new born calf serum (NCS) in T-75 flasks.
Cells were washed with PBS and re-suspended in DMEM medium supplemented with 0.5% NCS and 1% pen/strep and seeded into 96-well plates at density of 20,000 cells/well/100 μl and incubated in the incubator at 37° C. and 5% CO2. After 20 hours of incubation, 100 μl of assay media (DMEM) in presence of designated PF-compounds concentrations or controls (DMSO) were added into plates and incubated for 1 hour in the incubator. Media was then removed and lysis buffer, containing phosphatase inhibitors and phenylmethanesulfonyl fluoride (PMSF), was added to wells and shaken at 4° C. for 30 minutes to generate protein lysates.
A phospho-ALK (Tyr1604) rabbit antibody was coated onto the 96-well microplates. 50 μl of cell lysates were added to the antibody coated plate and incubated at room temperature for 2 hours. Following extensive washing with 0.1% Tween 20 in PBS to remove unbound materials, ALK mouse mAb was added to detect captured phospho-ALK (Tyr1604) and phospho-ALK fusion proteins. Anti-mouse IgG, HRP-linked antibody was then used to recognize the bound detection antibody. Finally, the chemiluminescent reagent was added and incubated for 10 minutes for signal development. The assay plates were read in the Envision plate reader in the luminescent mode. IC50 values were calculated by a concentration-response curve fitting using a four-parameter analytic method.

For test [4], the target named is T4, L1196M EML4-ALK (NIH-3T3 EML4-ALK v1 L1196M cells) (Homo sapiens, UniProt Q9UM73, L1196M).
T4 construct: expressed in transfected cells; the other entry of the earlier key: EML4 (Q9HC35, Echinoderm microtubule-associated protein-like 4)
Nature of the test: Cellular phospho-ALK (Tyr1604) ELISA assay for L1196M EML4-ALK. Conditions: NIH-3T3 EML4-ALK v1 L1196M cells, 1 hour, phospho-ALK (Tyr1604); read-out: ELISA assay for L1196M EML4-ALK (IC50). Format: cell-based.

As usually defined, the Ki is the dissociation constant of the complex between target and ligand, obtained from inhibition or displacement. By IC50 is commonly meant the point on the concentration scale where inhibition reaches its midpoint.

Take `C[C@H]1Oc2cc(cnc2N)-c2c(nnn2CC2CCC2)CN(C)C(=O)c2ccc(F)cc21` [Example 135, (10R)-7-amino-3-(cyclobutylmethyl)-12-fluoro-10,16-dimethyl-16,17-dihydro-3H-8,4-(metheno)[1,2,3]triazolo[4,5-h][2,5,11]benzoxadiazacyclotetradecin-15(10H)-one]: the inhibition constant Ki in test [1] was 2.1 nM; in test [2], 12.6 nM. Further, the half-maximal inhibitory concentration (IC50) in test [3] turned out to be 45.9 nM; in test [4], 814 nM.
The like results for `C[C@H]1Oc2cc(cnc2N)-c2c(nn(C)c2C#N)CN(C2CC2)C(=O)c2ccc(F)cc21` [Example 55, (10R)-7-amino-16-cyclopropyl-12-fluoro-2,10-dimethyl-15-oxo-10,15,16,17-tetrahydro-2H-8,4-(metheno)pyrazolo[4,3-h][2,5,11]benzoxadiazacyclotetradecine-3-carbonitrile] were, in that order, less than 0.07 nM, 0.24 nM, 1.03 nM and 13.4 nM.
Regarding `CN1Cc2nn(C)c(C#N)c2-c2cnc(N)c(c2)OC(CF)c2cc(F)ccc2C1=O` (single isomer, unassigned) [Example 85, 7-amino-12-fluoro-10-(fluoromethyl)-2,16-dimethyl-15-oxo-10,15,16,17-tetrahydro-2H-8,4-(metheno)pyrazolo[4,3-h][2,5,11]benzoxadiazacyclotetradecine-3-carbonitrile], the inhibition constant Ki was 0.07 nM in test [1] and 0.13 nM in test [2]. The 50% inhibitory concentration (IC50) worked out at 0.55 nM in test [3] and 6.72 nM in test [4].
With `CC1c2nn(C)c(C#N)c2-c2cnc(N)c(n2)OCc2cc(F)ccc2C(=O)N1C` (single isomer, unassigned) [Example 79, 7-amino-12-fluoro-2,16,17-trimethyl-15-oxo-10,15,16,17-tetrahydro-2H-8,4-(azeno)pyrazolo[4,3-h][2,5,11]benzoxadiazacyclotetradecine-3-carbonitrile], the inhibitory constant (Ki) was 1.18 nM in test [1] and 2.9 nM in test [2]. For the same compound, the IC50 in test [3] turned out to be 42.8 nM; in test [4] it was 180 nM.
Regarding `Cn1nc2c(c1C#N)-c1cnc(N)c(c1)OCc1cc(F)ccc1COC2` [Example 118, 7-amino-12-fluoro-2-methyl-2,10,15,17-tetrahydro-8,4-(metheno)pyrazolo-[4,3-h][2,11,5]benzodioxazacyclotetradecine-3-carbonitrile], the Ki was 17.8 nM in test [1] and 64.7 nM in test [2]. The values for the half-maximal inhibitory concentration (IC50) in test [3] and in test [4] were 217 nM and 1400 nM, respectively.
Consider `Cc1n[nH]c2c1-c1cnc(N)c(c1)OCc1cc(F)ccc1OCCC2` [Example 38, 12-fluoro-3-methyl-1,16,17,18-tetrahydro-10H-8,4-(metheno)pyrazolo[3,4-e][1,12,9]benzodioxazacyclopentadecin-7-amine], for which the values for the inhibitory constant (Ki) in test [1] and in test [2] were 0.61 nM and 5.7 nM, respectively. The results for the IC50 in test [3] and in test [4] were 12 nM and 201 nM, respectively.
The corresponding values for `CC1c2nn(C)c(C#N)c2-c2cnc(N)c(n2)OCc2cc(F)ccc2C(=O)N1C` (stereo not shown) [Example 78, 7-amino-12-fluoro-2,16,17-trimethyl-15-oxo-10,15,16,17-tetrahydro-2H-8,4-(azeno)pyrazolo[4,3-h][2,5,11]benzoxadiazacyclotetradecine-3-carbonitrile] are 2.93 nM, 9.61 nM, 40.8 nM and 350 nM.
On to `C[C@H]1Oc2cc(cnc2N)-c2cc(S(C)(=O)=O)ccc2CN(C)Cc2ccc(F)cc21` [Example 35, (5R)-3-fluoro-5,17-dimethyl-13-(methylsulfonyl)-5,16,17,18-tetrahydro-7,11-(metheno)dibenzo[g,l][1,4,10]oxadiazacyclotetradecin-8-amine], for which the values for the inhibition constant Ki in test [1] and in test [2] were less than 0.261 nM and 1.1 nM, respectively. Also, the values for the IC50 in test [3] and in test [4] were 0.98 nM and 14.3 nM, respectively.
In the case of `CN1Cc2nn(C)c(C#N)c2-c2cnc(N)c(c2)OCc2cc(F)ccc2C1=O` [Example 4, 7-amino-12-fluoro-2,16-dimethyl-15-oxo-10,15,16,17-tetrahydro-2H-8,4-(metheno)pyrazolo[4,3-h][2,5,11]benzoxadiazacyclotetradecine-3-carbonitrile], the inhibition constant Ki in test [1] was less than 0.2 nM; in test [2] it was 1.2 nM. In addition, the IC50 is 28.1 nM in test [3] and 184 nM in test [4].
Regarding `Cc1nn(C)c2c1-c1cnc(N)c(c1)OC(C)c1cc(F)ccc1C(=O)N(C1CC1)C2` (single isomer, unassigned) [Example 11, 7-amino-16-cyclopropyl-12-fluoro-1,3,10-trimethyl-16,17-dihydro-1H-8,4-(metheno)pyrazolo[4,3-h][2,5,11]benzoxadiazacyclotetradecin-15(10H)-one], the Ki in test [1] is less than 0.2 nM; in test [2], 1.1 nM. Moreover, the IC50 came to 1.21 nM in test [3] and 27.7 nM in test [4].
For `COc1nn(C)c2c1-c1cnc(N)c(c1)OC(CF)c1cc(F)ccc1C(=O)N(C)C2` (single isomer, unassigned) [Example 86, 7-amino-12-fluoro-10-(fluoromethyl)-3-methoxy-1,16-dimethyl-16,17-dihydro-1H-8,4-(metheno)pyrazolo[4,3-h][2,5,11]benzoxadiazacyclotetradecin-15(10H)-one], the inhibition constant (Ki) in test [1] was less than 0.2 nM; in test [2], 0.1 nM. Also, the results for the half-maximal inhibitory concentration (IC50) in test [3] and in test [4] were 0.45 nM and 2.57 nM, respectively.
On to `CCc1onc2c1-c1cnc(N)c(n1)O[C@H](C)c1cc(F)ccc1C(=O)N(C)C2` [Example 48, (10R)-7-amino-3-ethyl-12-fluoro-10,16-dimethyl-16,17-dihydro-8,4-(azeno)[1,2]oxazolo[4,3-h][2,5,11]benzoxadiazacyclotetradecin-15(10H)-one], for which the inhibitory constant (Ki) in test [1] came out at 0.2 nM; in test [2] it was 1.2 nM. In addition, the figures for the IC50 in test [3] and in test [4] were 6.75 nM and 68.9 nM, respectively.
`C[C@H]1Oc2cc(cnc2N)-c2c(nc3ccccn23)CN(C)C(=O)c2ccc(F)cc21` [Example 50, (5R)-8-amino-3-fluoro-5,19-dimethyl-18,19-dihydro-7,11-(metheno)pyrido-[2′,1′:2,3]imidazo[4,5-h][2,5,11]benzoxadiazacyclotetradecin-20(5H)-one]: the Ki is 0.14 nM in test [1] and 1.2 nM in test [2]. Also, the IC50 stood at 2.37 nM in test [3] and 29.7 nM in test [4].
`COc1c2c(nn1C)CN(C)C(=O)c1ccc(F)cc1C(C)Oc1cc-2cnc1N` (single isomer, unassigned) [Example 19, 7-amino-12-fluoro-3-methoxy-2,10,16-trimethyl-16,17-dihydro-2H-8,4-(metheno)pyrazolo[4,3-h][2,5,11]benzoxadiazacyclotetradecin-15(10H)-one]: the inhibition constant Ki is less than 0.2 nM in test [1] and 0.9 nM in test [2]. Moreover, the figures for the IC50 in test [3] and in test [4] were 4.89 nM and 110 nM, respectively.
Consider `COc1nccc2c1-c1cnc(N)c(n1)OC(C)c1cc(F)ccc1C(=O)N(C)C2` (single isomer, unassigned) [Example 30, 8-amino-13-fluoro-4-methoxy-11,17-dimethyl-17,18-dihydro-9,5-(azeno)pyrido[3,4-h][2,5,11]benzoxadiazacyclotetradecin-16(11H)-one], for which the inhibition constant Ki in test [1] is less than 0.2 nM; in test [2], 0.67 nM. The IC50 turned out to be 2.64 nM in test [3] and 67.2 nM in test [4].
Turning to `COc1nn(C)c2c1-c1cnc(N)c(n1)OCc1cc(F)ccc1C(=O)N(C)C2C` (single isomer, unassigned) [Example 123, 7-amino-12-fluoro-3-methoxy-1,16,17-trimethyl-16,17-dihydro-1H-8,4-(azeno)pyrazolo[4,3-h][2,5,11]benzoxadiazacyclotetradecin-15(10H)-one], the values for the Ki in test [1] and in test [2] were 205 nM and 333 nM, respectively. Moreover, the IC50 is 4790 nM in test [3] and more than 10000 nM in test [4].
The corresponding values for `CC(C)n1nc2c(c1C#N)-c1cnc(N)c(n1)O[C@H](C)c1cc(F)ccc1C(=O)N(C)C2` [Example 92, (10R)-7-amino-12-fluoro-10,16-dimethyl-15-oxo-2-(propan-2-yl)-10,15,16,17-tetrahydro-2H-8,4-(azeno)pyrazolo[4,3-h][2,5,11]benzoxadiazacyclotetradecine-3-carbonitrile] are 0.23 nM, 0.21 nM, 0.47 nM and 3.66 nM.
`COc1nccc2c1-c1cnc(N)c(n1)OC(C)c1cc(F)ccc1C(=O)N(C)C2` (single isomer, unassigned) [Example 31, 8-amino-13-fluoro-4-methoxy-11,17-dimethyl-17,18-dihydro-9,5-(azeno)pyrido[3,4-h][2,5,11]benzoxadiazacyclotetradecin-16(11H)-one]: the results for the Ki in test [1] and in test [2] were 5.96 nM and 15.8 nM, respectively. Moreover, the IC50 in test [3] was 53.2 nM; in test [4], 660 nM.
Turning to `CCc1nsc2c1-c1cnc(N)c(c1)O[C@H](C)c1cc(F)ccc1C(=O)N(C)C2` [Example 112, (10R)-7-amino-3-ethyl-12-fluoro-10,16-dimethyl-16,17-dihydro-8,4-(metheno)[1,2]thiazolo[4,5-h][2,5,11]benzoxadiazacyclotetradecin-15(10H)-one], the values for the Ki in test [1] and in test [2] were 0.32 nM and 3.4 nM, respectively. The IC50 stood at 9.67 nM in test [3] and 248 nM in test [4].

(Values after patent US8680111B2 (Pfizer Inc., priority 2012, dated 2014).)
